Patent publication US6406708B1, “Therapeutic compositions” (Interhealth AB, priority 1998, dated 2002)

Settings: 0.15% of sorbic acid in squalane/cyclodextrin composition

C/C=C/C=C/C(=O)O [sorbic acid]
anti-acne effect: does not give any anti-acne effect
